Results taken from patent US4780281A, “Method for assay of peroxidase enzyme or reducing substrate activity” (Wayne State University, priority 1985, dated 1988).
Values belong to the compound of their own block, whether it stands above or below them.

Legend:
HRP isoenzymes = settings: similar preparation of HRP isoenzymes, phenylperoxyacetic acid; cited from earlier work
[1] = biological target: T1, Horseradish peroxidase (HRP) (Armoracia rusticana, UniProt P00433); assay: Reducing substrate specificity assay (HRP-catalysed reduction of PPHP to PPA, HPLC); type: biochemical; settings: for Index = concentration PPA/(concentration PPA+concentration PPHP): 100 microM PPHP, 0.1 M potassium citrate pH 5.5, 0.2 mM Tween-20, 25° C., 6 minutes, triplicate
T1 construct: purchased Sigma Chemical Corporation Type VI
T1 sequence (P00433 31-338 limits assumed): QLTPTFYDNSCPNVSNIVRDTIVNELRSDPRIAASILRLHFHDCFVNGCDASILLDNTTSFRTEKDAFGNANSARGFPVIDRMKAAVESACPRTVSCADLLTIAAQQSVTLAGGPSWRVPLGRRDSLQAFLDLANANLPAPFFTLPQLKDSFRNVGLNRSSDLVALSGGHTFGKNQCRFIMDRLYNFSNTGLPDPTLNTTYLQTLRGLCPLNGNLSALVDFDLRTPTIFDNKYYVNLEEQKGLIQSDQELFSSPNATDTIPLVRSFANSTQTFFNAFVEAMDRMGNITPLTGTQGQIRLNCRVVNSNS
Experimental: Incubations were performed in triplicate with a 25° C. shaker bath in 16×150 mm disposable glass test tubes. 60 nM HRP was incubated at 25° C. in 0.1 M potassium citrate buffer, […] containing 0.2 mM Tween 20, with 100 microM PPHP and 200 microM potential reducing substrate. The index value is defined as, Index=concentration PPA/(concentration PPA+concentration PPHP). Most reducing substrates were prepared daily as 8 mM stocks in either water, methanol, or methanol:water (1:1 v/v). DPBF was dissolved in acetone. Uric acid was dissolved in DMSO. Epinephrine required titration with dilute hydrochloric acid prior to dissolution in methanol. Indoleacetic acid, tryptophan, cysteine, and methionine were titrated with dilute potassium hydroxide prior to dissolution in methanol:water (1:1 v/v).
For the data in Table 1 hereinafter, reducing substrates (50 microliters of 8 mM stocks--see Table 1 for preparation) were transferred into 1.9 ml of 0.1 M potassium citrate buffer, pH 5.5, containing 0.2 mM Tween-20 and allowed to thermally equilibrate for 10 minutes. HRP (24 microl of a 5 microM stock) was added to each trial and preincubated for three minutes prior to the addition of PPHP (25 microl of 8 mM stock in methanol). Incubations were stopped at 6 minutes by pouring mixtures onto Baker SPE System columns (3 ml octyldecylsilyl, from J. T. Baker & Co.). The columns were prepared prior to use by passing 3×3 ml aliquots of water through the columns with the Baker SPE vacuum system. At the stop time, an individual trial was poured onto the column and aspirated to near dryness. Each individual trial was set aside until the reminder of the trials were treated in the same manner. After all incubation trials were partitioned onto the SPE columns, each individual incubation tube was washed with 2 ml of 0.2 mM Tween 20 in distilled water and poured onto the corresponding SPE column. This Tween 20/water wash was aspirated to near dryness with vacuum. Analytes were eluted into 12×76 mm disposable glass test tubes with 2×1 ml aliquots of methanol (HPLC grade, Fisher Scientific Co.). The sample collection rack for the Baker 10 SPE System was modified to accommodate these 12 mm diameter tubes. The SPE columns were aspirated dry at this point and discarded. An internal chromatographic standard of p-nitrobenzyl alcohol (25 microl of 8 mM stock solution in methanol) was added to each methanol eluent, mixed by vortexing, and then clarified by filtration through a 0.45 micron nylon Swinney type filter (Rainin Instrument Corp.). The filtered eluents were used directly for chromatographic analysis.
The Initial incubation conditions were 0.1 M potassium citrate buffer, pH 5.5, with 0.2 mM Tween 20, 200 microM reducing substrate, 60 nM HRP and […] PPHP (structure 1).
Quantitation was determined by adding an internal standard (p-nitrobenzyl alcohol: annotated as I.S. on chromatograms) and ratioing peak areas. Chromatograms are 40 microliters injections onto a 5 micron Zorbax octylsilyl reverse-phase column (DuPont Instrument Corp.) with an isocratic elution mobile of 56% v/v methanol in water at 2 ml per min. U.V. monitoring was with a fixed 254 nm detector (Varian 5000, Varian Instrument Corp.). Vertical numbers are associated with peak retention times in minutes (the integrator used was a Vista 402 System, Varian Instruments).
Analyte concentrations were calculated by an internal standard method of calculation. This required individual incubation chromatograms to be compared to a calibration chromatogram generated by chromatographing a 40 microliter sample aliquot of a solution of PPHP as described under calculations.

HRP compound II = biological target: T2, HRP compound II (Armoracia rusticana, UniProt P00433); settings: pH 8.11; read-out: Km for the reaction with HRP compound II; cited from earlier work
T2 sequence (P00433 31-353): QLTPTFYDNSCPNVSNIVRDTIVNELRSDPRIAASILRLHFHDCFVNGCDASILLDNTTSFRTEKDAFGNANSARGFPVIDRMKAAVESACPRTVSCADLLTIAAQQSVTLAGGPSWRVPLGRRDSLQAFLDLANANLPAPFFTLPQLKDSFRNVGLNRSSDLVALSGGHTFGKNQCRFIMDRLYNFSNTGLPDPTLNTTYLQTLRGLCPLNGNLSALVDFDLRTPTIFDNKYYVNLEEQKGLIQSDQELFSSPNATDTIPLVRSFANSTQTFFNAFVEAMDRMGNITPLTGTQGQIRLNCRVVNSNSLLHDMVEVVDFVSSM

Solubility of PPHP = type: physicochemical; settings: aqueous buffers
Stability of PPHP = type: physicochemical; settings: protected from light and metals
glutathione peroxidase = biological target: T3, glutathione peroxidase (Homo sapiens, UniProt P07203); assay: PPHP as peroxidase substrate; type: biochemical
T3 sequence (P07203 1-203): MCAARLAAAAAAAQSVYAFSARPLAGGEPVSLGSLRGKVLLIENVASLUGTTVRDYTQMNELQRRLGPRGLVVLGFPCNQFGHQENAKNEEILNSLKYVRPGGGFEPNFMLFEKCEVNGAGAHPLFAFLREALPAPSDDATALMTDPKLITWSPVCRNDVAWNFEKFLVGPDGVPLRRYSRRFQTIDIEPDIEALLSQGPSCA
From the text: (§1) A practical method is described for the determination of peroxidase enzyme activity that monitors the ability of enzyme preparations to reduce PPHP in the presence of a reducing substrate. […] The alcohol product and hydroperoxide substrate are conveniently separated by HPLC and reliably quantitated by ultraviolet detection. These properties make PPHP an ideal substrate for the assay. […] Thus, the procedure is a general assay for peroxidase activity.

lactoperoxidase = lactoperoxidase (Bos taurus, UniProt P80025); assay: PPHP as peroxidase substrate; type: biochemical
From the text: as §1

cytochrome P-450 = assay: PPHP as peroxidase substrate; type: biochemical
From the text: as §1

catalase = biological target: T4, catalase (Homo sapiens, UniProt P04040); assay: PPHP as peroxidase substrate; type: biochemical
T4 sequence (P04040 2-527 limits assumed): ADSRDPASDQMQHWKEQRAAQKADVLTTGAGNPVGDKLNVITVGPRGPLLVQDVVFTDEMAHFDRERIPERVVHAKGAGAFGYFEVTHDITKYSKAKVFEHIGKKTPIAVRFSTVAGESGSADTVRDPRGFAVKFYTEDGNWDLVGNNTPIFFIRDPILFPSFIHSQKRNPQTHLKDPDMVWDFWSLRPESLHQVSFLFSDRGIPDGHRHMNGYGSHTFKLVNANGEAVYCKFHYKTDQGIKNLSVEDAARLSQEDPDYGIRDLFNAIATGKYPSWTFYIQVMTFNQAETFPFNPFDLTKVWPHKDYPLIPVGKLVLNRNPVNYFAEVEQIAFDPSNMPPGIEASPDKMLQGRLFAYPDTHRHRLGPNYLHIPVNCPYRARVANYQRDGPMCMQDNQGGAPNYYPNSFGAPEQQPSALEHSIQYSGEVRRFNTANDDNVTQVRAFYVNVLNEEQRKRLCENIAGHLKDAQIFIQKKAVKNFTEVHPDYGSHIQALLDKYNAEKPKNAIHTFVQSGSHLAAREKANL
From the text: as §1

Prostaglandin H Synthase = biological target: T5, Prostaglandin H Synthase (Ovis aries, UniProt P05979); assay: Reducing substrate efficiency for PPHP reduction, conditions as for Table 1; type: biochemical
T5 sequence (P05979 25-600): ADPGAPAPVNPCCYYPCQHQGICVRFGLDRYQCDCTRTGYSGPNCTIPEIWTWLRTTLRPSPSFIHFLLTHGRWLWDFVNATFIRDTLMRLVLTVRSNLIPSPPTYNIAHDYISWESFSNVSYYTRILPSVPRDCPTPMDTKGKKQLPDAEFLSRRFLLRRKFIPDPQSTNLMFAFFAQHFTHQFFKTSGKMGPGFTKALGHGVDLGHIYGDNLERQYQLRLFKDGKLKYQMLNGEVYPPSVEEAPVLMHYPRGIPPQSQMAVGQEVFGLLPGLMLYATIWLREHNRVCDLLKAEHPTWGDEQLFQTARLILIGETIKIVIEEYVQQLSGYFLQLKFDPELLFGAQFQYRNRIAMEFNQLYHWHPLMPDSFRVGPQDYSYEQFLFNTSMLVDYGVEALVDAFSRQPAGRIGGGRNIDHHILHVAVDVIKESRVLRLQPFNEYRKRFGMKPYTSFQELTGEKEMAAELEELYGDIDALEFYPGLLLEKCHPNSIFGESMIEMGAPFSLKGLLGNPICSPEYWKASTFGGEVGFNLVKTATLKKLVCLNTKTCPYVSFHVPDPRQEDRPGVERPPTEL

HRP = biological target: T6, HRP (Armoracia rusticana, UniProt P00433); assay: Steady-state kinetic assay (PPA production, SPE/HPLC); type: biochemical, horseradish; settings: HRP with phenol as reducing substrate
T6 construct: purchased Sigma Chemical Corporation Type VI
T6 sequence (P00433 31-338 limits assumed): T1 sequence (P00433 31-338 limits assumed)
Experimental: The incubations were terminated at 2, 4, and 8 minutes by pouring the incubations onto SPE columns as described in Methods. […] The data points are the average of triplicates. […] All buffers contained 0.2 mM Tween-20. Incubations were stopped at 4 minutes by pouring onto SPE columns as described in Methods. Each data point is the average of triplicates. […] Incubations were stopped at 4 minutes by pouring on SPE columns as described in Methods. PPA concentrations were converted into velocities by dividing by the incubation time and assuming linear steady-state velocities over the first 8 minutes (see FIG. 3). Five replicates of each phenol concentration were assayed. Km and Vmax were determined by linear regression analysis upon the non-averaged data points.
We designed the assays with 4 minute termination times converting either the concentration of PPHP or PPA into velocities.

[2] = 60 nM HRP, 200 microM reducing substrate

Index = concentration PPA/(concentration PPA+concentration PPHP) [1, 2]: 0.97 ± 0.01
SMILES: Oc1cccc(O)c1O [Pyrogallol, pyrogallol]
turnover for pyrogallol oxidation (HRP isoenzymes): 18500 min⁻¹

SMILES: Cc1ccc(O)cc1 [p-cresol]
Km (HRP compound II): ~180 µM

solubility (Solubility of PPHP): soluble in aqueous buffers
suitability as peroxidase substrate ([1]; HRP): excellent substrate
suitability as peroxidase substrate (glutathione peroxidase): excellent substrate
suitability as peroxidase substrate (lactoperoxidase): excellent substrate
suitability as peroxidase substrate (cytochrome P-450): excellent substrate
suitability as peroxidase substrate (catalase): excellent substrate
suitability as peroxidase substrate (Prostaglandin H Synthase; protaglandin H (PGH) synthase): excellent substrate
SMILES: OOCCC/C=C/c1ccccc1 [PPHP, 1-hydroperoxy-5-Phenyl-4-pentene]
stability (Stability of PPHP): stable if protected from light and metals

SMILES: Oc1ccccc1 [Phenol, phenol]
turnover number of PHP reduction (HRP): 10500 min
Index = concentration PPA/(concentration PPA+concentration PPHP) [1, 2]: 0.97 ± 0.01
reducing substrate quality for HRP (FIG. 1) ([1]; 200 microM reducing substrate, 60 nM HRP, pH 5.5): good
Index of Efficiency of Reducing Substrates (Prostaglandin H Synthase; Prostaglandin H synthase, under the conditions for Table 1): .51
